≈ marks a conversion by molar mass, not a printed value.

Among the data in ChEMBL document CHEMBL1151394, “Cytotoxic agent from Senecio anonymus wood” (1982) are EC50 and T/C values, retold here.

One test concerns KB. Briefly: Cytotoxicity against human KB cells. Particulars: read-out: ED50 (the source's name). In kind it is functional.
For a further test, the system named is P388. The test is described as follows: In vivo cytotoxicity against mouse P388 cells. In kind it is functional.

Turning to `CCOC(=O)CC1(O)C=CC(=O)C=C1`, the EC50 in the test on KB was 3.3 µg/mL (≈ 16.8 µM).
For `COC(=O)CC1(O)C=CC(=O)C=C1` [JACARANONE], in the test with KB, the EC50 stood at 2.1 µg/mL (≈ 11.5 µM). For the same compound, the T/C in the test with P388 is given as 165%.

What is called T/C is the result in the treated group divided by that in the control group, in per cent.
